Results published in US10039759B2, “Quinolines as FGFR kinase modulators” (priority 2011, dated 2018).
Where two headings read alike, the source gives them in different places.

Key:
[1] = biological target: T1, Ba/F3-FGFR1-transfected cells (Homo sapiens, UniProt P11362, cells depend on it, form not given); test: Ba/F3-FGFR1 (minus IL3 or plus IL3) cellular proliferation assay, Alamar Blue; assay type: cell-based; conditions: minus IL3, 24 hours
T1 construct: other: minus IL3; 24 hours, Alamar Blue
Procedure, shortened: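 Ba/F3-FGFR1 cells (20000/well) were treated with compound (10 μM–0.1 nM) for 24 h at 37 °C. Alamar Blue was then added for 4 h, with fluorescence read at ex 540/em 590 nm to give IC50/pIC50. A counterscreen was run with 10 ng/ml murine IL3.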

FGFR3 (h) = FGFR3 (h) (Homo sapiens, UniProt P22607); test: FGFR3 (enzymatic assay), TR-FRET; assay type: biochemical; conditions: 60 min, pIC50 = -log IC50 (M), average if tested multiple times
[2] = biological target: T2, Ba/F3-Flt3-transfected cells (Homo sapiens, UniProt P36888, cells depend on it, form not given); test: Ba/F3-Flt3 (minus IL3 or plus IL3) cellular proliferation assay, Alamar Blue; assay type: cell-based; conditions: minus IL3, 24 hours
T2 construct: BAF3-FLT3 (MIN IL3 Alamar Blue pIC50); other: minus IL3; 24 hours, Alamar Blue
T2 sequence (P36888 1-993): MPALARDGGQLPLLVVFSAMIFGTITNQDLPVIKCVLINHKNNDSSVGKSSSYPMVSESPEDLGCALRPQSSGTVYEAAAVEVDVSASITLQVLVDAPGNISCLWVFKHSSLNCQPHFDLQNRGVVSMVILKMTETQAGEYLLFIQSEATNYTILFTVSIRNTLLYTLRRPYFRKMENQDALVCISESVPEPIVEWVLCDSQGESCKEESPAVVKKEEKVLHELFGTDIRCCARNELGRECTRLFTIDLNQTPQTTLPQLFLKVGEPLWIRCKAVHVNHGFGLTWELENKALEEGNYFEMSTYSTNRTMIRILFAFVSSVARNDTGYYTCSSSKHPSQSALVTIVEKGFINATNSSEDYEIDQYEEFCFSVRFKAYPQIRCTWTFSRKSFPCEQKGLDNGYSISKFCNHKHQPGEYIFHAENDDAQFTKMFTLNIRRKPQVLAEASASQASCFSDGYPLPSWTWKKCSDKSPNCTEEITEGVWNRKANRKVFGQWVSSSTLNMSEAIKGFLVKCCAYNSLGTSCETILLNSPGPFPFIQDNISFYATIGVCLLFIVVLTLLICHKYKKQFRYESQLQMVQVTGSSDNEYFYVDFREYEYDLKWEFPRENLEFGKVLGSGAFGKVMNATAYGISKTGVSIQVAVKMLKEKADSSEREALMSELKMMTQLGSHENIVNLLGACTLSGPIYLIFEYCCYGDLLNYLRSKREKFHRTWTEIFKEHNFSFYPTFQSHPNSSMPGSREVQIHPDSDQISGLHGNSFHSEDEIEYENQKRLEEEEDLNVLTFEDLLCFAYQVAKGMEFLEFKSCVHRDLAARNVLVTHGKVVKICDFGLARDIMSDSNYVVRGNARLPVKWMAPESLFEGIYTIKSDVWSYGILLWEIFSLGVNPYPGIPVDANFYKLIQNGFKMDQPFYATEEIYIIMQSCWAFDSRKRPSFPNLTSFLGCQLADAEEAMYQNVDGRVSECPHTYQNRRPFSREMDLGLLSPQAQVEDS
Procedure: Ba/F3-Flt3 (Minus IL3 or Plus IL3) (Cellular Proliferation Assay)
In a 384 well plate, 100 nl of compound dilution in DMSO was sprayed before adding 50 μl cell culture medium (phenol red free RPMI-1640, 10% FBS, 2 mM L-Glutamine and 50 μg/ml Gentamycin) containing 20000 cells per well of Ba/F3-Flt3-transfected cells. Cells were put in an incubator at 37° C. and 5% CO2. After 24 hours, 10 μl of Alamar Blue solution (0.5 mM K3Fe(CN)6, 0.5 mM K4Fe(CN)6, 0.15 mM Resazurin and 100 mM Phosphate Buffer) was added to the wells, incubated for 4 hours at 37° C. and 5% CO2 before RFU's (Relative Fluorescence Units) (ex. 540 nm., em. 590 nm.) were measured in a fluorescence plate reader.
In this assay, the inhibitory effect of different compound concentrations (range 10 μM to 0.1 nM) was determined and used to calculate an IC50 (M) and pIC50 (−log IC50) value. As a counterscreen the same experiment was performed in the presence of 10 ng/ml murine IL3.

KDR (h) = KDR (h) (Homo sapiens, UniProt P35968); test: KDR (VEGFR2) (enzymatic assay), TR-FRET; assay type: biochemical; conditions: 3 μM ATP, 120 min; pIC50 = -log IC50 (M); average if tested multiple times; read-out: VEGFR KDR pIC50 (converted)
Procedure, shortened: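 Recombinant human KDR (150 ng/ml) phosphorylated 500 nM Btn-Flt3 with 3 μM ATP in HEPES pH 7.5/MnCl2 buffer, 1% DMSO, 120 min at room temperature; EDTA stop with Eu-anti-P-Tyr/SA-XL665 detection, TR-FRET read. IC50 and pIC50 derived from compound concentrations spanning 10 μM to 0.1 nM.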

FGFR1 (h) = FGFR1 (h) (Homo sapiens, UniProt P11362); test: FGFR1 (enzymatic assay), TR-FRET; assay type: biochemical; conditions: FGFR 1 pIC50, 5 μM ATP, 60 min; pIC50 = -log IC50 (M); average if tested multiple times
[3] = 25 μM ATP, read-out: hFGFR 3 pIC50 (converted)

KDR (h), sequence (P35968 20-1356): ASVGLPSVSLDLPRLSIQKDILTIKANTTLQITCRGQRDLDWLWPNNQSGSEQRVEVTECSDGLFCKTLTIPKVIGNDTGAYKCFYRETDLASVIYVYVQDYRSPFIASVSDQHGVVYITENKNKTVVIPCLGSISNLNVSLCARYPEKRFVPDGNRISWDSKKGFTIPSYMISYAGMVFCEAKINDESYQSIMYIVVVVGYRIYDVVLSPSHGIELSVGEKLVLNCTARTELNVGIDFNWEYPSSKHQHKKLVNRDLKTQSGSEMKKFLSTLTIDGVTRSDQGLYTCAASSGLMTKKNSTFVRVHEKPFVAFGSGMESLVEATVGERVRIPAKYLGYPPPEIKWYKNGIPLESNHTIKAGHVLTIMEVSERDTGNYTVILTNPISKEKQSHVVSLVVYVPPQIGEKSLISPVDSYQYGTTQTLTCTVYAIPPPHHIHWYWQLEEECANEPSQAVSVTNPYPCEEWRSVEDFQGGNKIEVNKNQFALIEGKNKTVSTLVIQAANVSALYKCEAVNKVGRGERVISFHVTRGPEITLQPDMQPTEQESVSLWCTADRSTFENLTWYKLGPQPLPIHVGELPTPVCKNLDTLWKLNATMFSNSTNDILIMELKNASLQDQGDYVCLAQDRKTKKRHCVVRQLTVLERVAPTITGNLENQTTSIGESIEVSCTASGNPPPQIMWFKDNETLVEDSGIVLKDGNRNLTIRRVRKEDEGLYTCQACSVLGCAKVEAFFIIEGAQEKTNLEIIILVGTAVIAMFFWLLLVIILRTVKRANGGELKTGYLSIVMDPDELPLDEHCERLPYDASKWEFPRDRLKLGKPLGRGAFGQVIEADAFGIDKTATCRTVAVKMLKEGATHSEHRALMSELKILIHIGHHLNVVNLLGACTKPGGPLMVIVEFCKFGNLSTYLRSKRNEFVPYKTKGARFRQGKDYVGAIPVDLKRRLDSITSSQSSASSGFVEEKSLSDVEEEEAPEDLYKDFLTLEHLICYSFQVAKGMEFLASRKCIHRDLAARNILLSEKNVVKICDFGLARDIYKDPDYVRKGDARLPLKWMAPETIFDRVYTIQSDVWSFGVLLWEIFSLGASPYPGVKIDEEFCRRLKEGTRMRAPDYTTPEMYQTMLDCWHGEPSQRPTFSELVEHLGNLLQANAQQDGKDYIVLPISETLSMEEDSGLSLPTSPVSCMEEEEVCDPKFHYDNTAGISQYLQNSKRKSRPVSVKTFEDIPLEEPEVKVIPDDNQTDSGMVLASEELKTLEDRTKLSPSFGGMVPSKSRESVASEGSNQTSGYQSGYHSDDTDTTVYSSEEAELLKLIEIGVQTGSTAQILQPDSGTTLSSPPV
T1 sequence (P11362 whole entry, change not shown): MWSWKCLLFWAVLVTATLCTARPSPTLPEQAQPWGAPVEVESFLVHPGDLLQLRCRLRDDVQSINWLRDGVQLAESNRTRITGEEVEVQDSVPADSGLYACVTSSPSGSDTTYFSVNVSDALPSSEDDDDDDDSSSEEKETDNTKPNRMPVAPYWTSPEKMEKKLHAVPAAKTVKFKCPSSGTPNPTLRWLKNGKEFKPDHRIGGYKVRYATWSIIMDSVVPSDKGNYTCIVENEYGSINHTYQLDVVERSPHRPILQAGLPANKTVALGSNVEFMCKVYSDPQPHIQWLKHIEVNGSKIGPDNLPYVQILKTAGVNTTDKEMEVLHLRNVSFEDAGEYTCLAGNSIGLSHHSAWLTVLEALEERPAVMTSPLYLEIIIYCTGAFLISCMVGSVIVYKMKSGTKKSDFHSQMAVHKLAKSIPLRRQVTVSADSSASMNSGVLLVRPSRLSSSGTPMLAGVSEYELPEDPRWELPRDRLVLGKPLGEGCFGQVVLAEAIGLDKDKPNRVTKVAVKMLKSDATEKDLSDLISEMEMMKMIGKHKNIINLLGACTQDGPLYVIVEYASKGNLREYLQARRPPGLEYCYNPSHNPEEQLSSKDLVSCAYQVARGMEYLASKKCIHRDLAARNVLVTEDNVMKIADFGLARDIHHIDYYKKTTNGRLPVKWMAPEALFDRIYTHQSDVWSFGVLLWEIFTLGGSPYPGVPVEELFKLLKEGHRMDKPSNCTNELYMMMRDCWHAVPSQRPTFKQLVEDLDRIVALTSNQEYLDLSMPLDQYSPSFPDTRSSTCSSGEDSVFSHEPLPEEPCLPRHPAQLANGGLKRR
FGFR1 (h), sequence (P11362 22-822): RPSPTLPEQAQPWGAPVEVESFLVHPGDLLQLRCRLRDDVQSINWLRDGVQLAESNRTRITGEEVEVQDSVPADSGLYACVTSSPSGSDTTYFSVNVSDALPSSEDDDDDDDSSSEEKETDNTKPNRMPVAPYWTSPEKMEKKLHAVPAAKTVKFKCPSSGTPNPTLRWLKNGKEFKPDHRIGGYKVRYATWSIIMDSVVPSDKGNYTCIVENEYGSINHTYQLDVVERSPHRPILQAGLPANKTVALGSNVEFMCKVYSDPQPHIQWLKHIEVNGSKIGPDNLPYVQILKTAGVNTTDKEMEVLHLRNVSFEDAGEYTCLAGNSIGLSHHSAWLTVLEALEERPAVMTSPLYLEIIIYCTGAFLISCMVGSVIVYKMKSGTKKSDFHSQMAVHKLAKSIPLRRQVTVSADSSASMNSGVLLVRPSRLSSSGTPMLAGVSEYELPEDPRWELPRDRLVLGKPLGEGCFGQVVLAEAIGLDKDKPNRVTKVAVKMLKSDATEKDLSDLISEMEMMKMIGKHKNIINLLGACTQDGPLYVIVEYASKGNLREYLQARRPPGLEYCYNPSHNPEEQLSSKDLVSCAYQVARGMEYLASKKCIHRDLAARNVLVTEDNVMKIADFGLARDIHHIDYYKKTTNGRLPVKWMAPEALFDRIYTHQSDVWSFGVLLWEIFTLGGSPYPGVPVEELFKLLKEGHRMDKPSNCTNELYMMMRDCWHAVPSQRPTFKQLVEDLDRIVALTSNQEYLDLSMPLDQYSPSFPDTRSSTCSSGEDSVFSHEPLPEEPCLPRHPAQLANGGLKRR
FGFR3 (h), sequence (P22607 23-806): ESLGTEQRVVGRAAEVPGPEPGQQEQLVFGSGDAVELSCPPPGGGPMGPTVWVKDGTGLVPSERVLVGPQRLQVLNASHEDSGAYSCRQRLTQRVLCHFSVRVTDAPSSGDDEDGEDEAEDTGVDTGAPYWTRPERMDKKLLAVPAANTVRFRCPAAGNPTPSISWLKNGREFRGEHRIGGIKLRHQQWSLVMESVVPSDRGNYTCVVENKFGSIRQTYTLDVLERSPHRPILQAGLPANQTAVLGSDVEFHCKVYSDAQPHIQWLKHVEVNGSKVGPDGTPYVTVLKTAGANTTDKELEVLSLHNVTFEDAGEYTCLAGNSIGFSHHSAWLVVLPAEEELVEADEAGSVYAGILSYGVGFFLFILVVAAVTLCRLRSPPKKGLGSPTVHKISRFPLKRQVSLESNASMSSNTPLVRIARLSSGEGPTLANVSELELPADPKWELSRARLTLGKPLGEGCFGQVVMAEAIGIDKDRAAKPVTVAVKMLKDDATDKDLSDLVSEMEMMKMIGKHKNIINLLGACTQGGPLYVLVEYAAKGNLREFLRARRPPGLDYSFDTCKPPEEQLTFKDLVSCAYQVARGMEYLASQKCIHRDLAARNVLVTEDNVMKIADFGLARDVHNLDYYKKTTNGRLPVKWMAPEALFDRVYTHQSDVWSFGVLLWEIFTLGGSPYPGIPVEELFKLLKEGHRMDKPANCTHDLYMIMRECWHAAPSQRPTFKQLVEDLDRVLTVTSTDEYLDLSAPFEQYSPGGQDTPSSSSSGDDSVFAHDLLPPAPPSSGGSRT

| Compound | BAF3-FGFR1 (MIN IL3 pIC50) [1] | IC50 (FGFR3 (h); [3]) [M] | BAF3-FLT3 (MIN IL3 Alamar Blue pIC50) [2] | IC50 (KDR (h)) [M] | IC50 (FGFR1 (h)) [M] | IC50 (FGFR3 (h); hFGFR 3 pIC50, 25 μM ATP) [M] |
| --- | --- | --- | --- | --- | --- | --- |
| C#CCN(c1cc(OC)cc(OC)c1)c1ccc2ncc(-c3cnn(C)c3)cc2c1 [Compound 6] | 5.7 | 1.35e-08 | 5.2 | 4.27e-07 | 1.51e-08 | – |
| COc1cc(OC)cc(N(Cc2nccn2S(=O)(=O)N(C)C)c2ccc3ncc(-c4cnn(C)c4)cc3c2)c1 [Compound 9] | 6.14 | 1.1e-08 | <5 | 1.66e-07 | 5.62e-09 | – |
| COc1cc(OC)cc(N(CCCN)c2ccc3ncc(-c4cnn(C)c4)cc3c2)c1 [Compound 11] | 6.67 | 3.39e-09 | <5 | 4.47e-08 | 3.63e-09 | – |
| COc1cc(OC)cc(C(O)c2ccc3ncc(-c4cnn(C)c4)cc3c2)c1 (stereo not drawn) [Compound 12] | <5.03 | 2.34e-07 | <5.47 | > 1e-06 | 2.95e-07 | – |
| COc1cc(OC)cc(N(CC#Cc2nccc(OC)n2)c2ccc3ncc(-c4cnn(C)c4)cc3c2)c1 [Compound 16] | >8 | 1.35e-08 | 5.19 | 8.91e-07 | 9.33e-09 | – |
| COc1cc(OC)cc(N(CC#Cc2ncccc2OC)c2ccc3ncc(-c4cnn(C)c4)cc3c2)c1 [Compound 17] | 7.35 | 5.89e-08 | <5 | > 1e-06 | 8.32e-08 | – |
| COc1cc(OC)cc(N(Cc2ncc[nH]2)c2ccc3ncc(-c4cnn(C)c4)cc3c2)c1 [Compound 18] | 6.88 | 1.26e-09 | <5 | 1.15e-07 | 2.75e-09 | – |
| COc1cc(OC)cc(N(CCNC(C)C)c2ccc3ncc(-c4cnn(C5CCCCO5)c4)cc3c2)c1 (stereo not drawn) [Compound 22] | 7.85 | 2.4e-09 | 5.22 | 4.37e-08 | 1.2e-09 | – |
| COc1cc(OC)c(F)c(N(CC#Cc2ncccc2OC)c2ccc3ncc(-c4cnn(C)c4)cc3c2)c1 [Compound 26] | 7.95 | – | 5.16 | 4.27e-07 | 4.79e-09 | 4.9e-09 |
| COc1cccnc1C#CCN(c1ccc2ncc(-c3cnn(C)c3)cc2c1)c1c(F)c(OC)cc(OC)c1F [Compound 27] | 8.715 | 2.37e-09 | <5 | 3.76e-08 | 1.64e-09 | – |
| CNCCN(c1ccc2ncc(-c3cnn(C)c3)cc2c1)c1c(F)c(OC)cc(OC)c1F [Compound 43] | 8.68 | 2.4e-09 | 5.24 | 1.48e-08 | 1.07e-09 | – |
| COc1cc(OC)cc(N(CCCN2CCCC2CNS(=O)(=O)C(F)(F)F)c2ccc3ncc(-c4cnn(C)c4)cc3c2)c1 (stereo not drawn) [Compound 47] | ~8.03 | 1.32e-09 | 5.14 | 1.17e-08 | 1.17e-09 | – |
| COc1cc(OC)cc(N(Cc2ncc[nH]2)c2ccc3ncc(-c4ccncc4)cc3c2)c1 [Compound 57] | 6.75 | 1.05e-09 | <5 | 4.57e-07 | 2.82e-09 | – |
| COc1cc(OC)cc(N(Cc2ncc[nH]2)c2ccc3ncc(-c4cccnc4)cc3c2)c1 [Compound 59] | 6.36 | 1.74e-09 | <5 | 8.51e-07 | 4.68e-09 | – |
| COc1cc(Nc2ccc3ncc(-c4cnn(C5CCCCO5)c4)cc3c2)cc(OC)c1 (stereo not drawn) [Int. 8] | 5.29 | 3.72e-08 | <5 | 3.16e-07 | 9.55e-08 | – |
